Columns and labels:
[1] = tested on: polymorphonuclear leucocytes (PMNL); assay: Test 2: Release of oxygen radicals from human PMNL; assay type: cell-based; details: read-out: Test 2 residual activity (release of oxygen radicals), percent of control
Experimental: Isolation of polymorphonuclear leucocytes (PMNL) from human peripheral blood for carrying out tests 1 and 2 10 ml of human blood were diluted with 10 ml of HBSS (Serva) and underlaid with 15 ml of Lymphoprep (Dr. Molter GmbH, Heidelberg). The sample was then centrifuged for 25 minutes at 400×g (1600 revolutions per minute, Minifuge 2, Heraeus, Osterode). […] A white ring, composed of mononuclear cells, is located between these two phases. The lowermost phase is composed of erythrocytes which are covered with a white layer of PMNL. The uppermost phase, and also the Lymphoprep and the white ring, were carefully removed using a syringe. The remaining sediment was carefully resuspended in 15 ml of 3% dextran in PM16 (mw: 485,000, Sigma, Deisenhofen). The suspension was then left to stand at room temperature for one hour. During this time, the erythrocytes sedimented while the PMNL remained in the supernatant. The supernatant was removed, diluted with an approximately equal volume of PM16, and centrifuged for 15 minutes at 400×g. Should the PMNL sediment be heavily contaminated with erythrocytes, it is necessary to carry out a hypotonic lysis. To do this, the sediment was resuspended in 750 μl of water. After exactly 15 seconds, the suspension was diluted with approximately 7 ml of PM16 and centrifuged for 10 minutes at 400×g. If necessary, this lysis was repeated once more. Otherwise, the PMNL sediment was resuspended in a suitable medium.
The PMNL were resuspended (5·10^6 cells/ml) in Dulbecco's PBS, supplemented with 7.5 mM glucose. Care must be taken to ensure that the PMNL are free of erythrocytes. 100 μl of PMNL, 700 μl of PBS+glucose and 100 μl of cytochrome C (9.38 mg/ml of PBS+glucose) were mixed in a semi-microcuvette. 100 μl of PMNL, 500 μl of PBS+glucose, 100 μl of cytochalasin B ([…]), 100 μl of TNF (0.05 ng) and 100 μl of cytochrome C (9.38 mg/ml of PBS+glucose) were mixed for the fMLP-induced release of oxygen. Measurements were made in a double-beam photometer meter (Perkin-Elmer 552 S) at a wavelength of 550 nm. The measurement range is 0-1 extinction units. The cuvettes were temperature-equilibrated to 37° C. The reference cuvette additionally contained 10 μl of SOD (6 mg of SOD/ml of PBS+glucose). Following a preincubation of 5 minutes, the reaction is started with 100 μl of inducer. The reaction is started with 1·10^-7 mol of fMLP.
The values in the table show the concentration of the test substance which was employed in μM and, besides this, the residual activity measured in percent based on the control, which was set to be 100%. The interleukin is additionally indicated in test 4.

[2] = tested on: leukotriene B4 synthesis in white blood cells; assay: Test 3: LTB4 formation by white blood cells; assay type: cell-based; details: Homo sapiens, read-out: Test 3 residual activity (LTB4 formation), percent of control
Summary of the method: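 Human blood leukocytes (dextran sedimentation, 10^7 cells/ml) preincubated 15 min at 37 °C with compound plus CaCl2/MgCl2, then stimulated with A23187/glutathione for 5 min at 37 °C. LTB4 in supernatant quantified by reversed-phase HPLC with UV at 280 nm; residual activity given as percent of control at stated μM concentration.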

[3] = tested on: cyclooxygenase-dependent thrombocyte aggregation; assay: Test 5: Cyclooxygenase-dependent thrombocyte aggregation; assay type: cell-based, human; details: Homo sapiens, arachidonic acid as inducer, read-out: Test 5 residual activity (cyclooxygenase-dependent thrombocyte aggregation), percent of control
Summary of the method: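 Citrated human platelet-rich plasma was preincubated 10 min at 37 °C with test substance diluted 1:30 in 50 mM Tris-HCl pH 8.0, 90 mM NaCl. Aggregation was triggered with arachidonic acid (5 mg/ml, 20 μl) under 800 rpm stirring in an aggregometer. Values are tested concentration (μM) and residual activity as % of control.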

[4] = tested on: tumor cell line 20-10-5S (hybridoma cell line); assay: Test 8: Inhibition of tumor cell proliferation; assay type: cell-based; details: 48 h + 16 h tritiated thymidine incorporation; 20-10-5S cells

Row | SMILES | IC50 [4] [µM] | activity at 5 µM [1] [%] | activity at 50 µM [1] [%] | activity at 10 µM [2] [%] | activity at 100 µM [3] [%] | activity at 10 µM ([1]; 10 μM) [%] | activity at 25 µM ([1]; 25 μM) [%] | activity at 1 µM [2] [%] | activity at 10 µM ([3]; 10 μM) [%]
1 | CC(O)c1cc(-c2cc(C(C)(C)C)c(O)c(C(C)(C)C)c2)no1 (stereo not drawn) [Example 28] | < 5 | – | – | 0 | – | 60 | 8 | 14 | 93
2 | CC(C)(C)c1cc(C2=NOC(c3ccccn3)C2)cc(C(C)(C)C)c1O (stereo not drawn) [Example 9] | – | – | – | 0 | 92 | – | – | 59 | –
3 | CC(C)(C)c1cc(C2CC(CCC(=O)O)=NO2)cc(C(C)(C)C)c1O (stereo not drawn) [Example 63, 5-(4-Hydroxy-3,5-di-tert-butylphenyl)-2-isoxazolin-3-ylpropionic acid] | – | – | 79 | 91 | – | – | – | – | –

More lines, main results first:

Row | IC50 [4] [µM] | SMILES | activity at 5 µM [1] [%] | activity at 50 µM [1] [%] | activity at 10 µM [2] [%] | activity at 100 µM [3] [%] | activity at 10 µM ([1]; 10 μM) [%] | activity at 25 µM ([1]; 25 μM) [%] | activity at 1 µM [2] [%] | activity at 10 µM ([3]; 10 μM) [%]
4 | < 5 | CCOC(=O)CNC(=O)OCCCc1cc(-c2cc(C(C)(C)C)c(O)c(C(C)(C)C)c2)no1 [Example 41, N-(3-(4-Hydroxy-3,5-di-tert-butylphenyl)isoxazol-5-ylpropoxycarbonyl)glycine ethyl ester] | 75 | 36 | 13 | 95 | – | – | – | –
5 | 5 to 10 | CC(C)(C)c1cc(-c2cc(CNS(=O)(=O)C(F)(F)F)on2)cc(C(C)(C)C)c1O [Example 49, N-(3-(4-Hydroxy-3,5-di-tert-butylphenyl)isoxazol-5-ylmethyl)trifluoromethanesulfonamide] | 80 | 12 | 0 | – | – | – | 90 | –

Source: US5814627A, “3, 5-disubstituted and 3, 4, 5-trisubstituted 2-isoxazolines and isoxazoles, process for their preparation and their use as pharmaceuticals” (Hoechst Aktienegesellschaft, priority 1994, dated 1998)
